Measured values from publication PMC8330742, “New benzothieno[2,3-c]pyridines as non-steroidal CYP17 inhibitors: design, synthesis, anticancer screening, apoptosis induction, and in silico ADME profile studies” (Journal of Enzyme Inhibition and Medicinal Chemistry, 2021).

How the values were obtained:
HCT-15 = experiment: NCI-60 SRB screen; format: cell-based, human; conditions: Homo sapiens; HCT-15; single dose 10^−5 M; read-out: Growth inhibition (%)
NCI-H226 = experiment: NCI-60 SRB screen; format: cell-based, human; conditions: Homo sapiens; NCI-H226; single dose 10^−5 M; read-out: Growth inhibition (%)
SN12C = experiment: NCI-60 SRB screen; format: cell-based, human; conditions: Homo sapiens, SN12C; SN 12 C; single dose 10^−5 M; read-out: Growth inhibition (%)
SR = experiment: NCI-60 SRB screen; format: cell-based; conditions: Homo sapiens, single dose 10^−5 M, read-out: Growth inhibition (%)
HCC-2998 = experiment: NCI-60 SRB screen; format: cell-based, human; conditions: Homo sapiens; HCC-2998; single dose 10^−5 M; read-out: Growth inhibition (%)
ACHN = experiment: NCI-60 SRB screen; format: cell-based; conditions: Homo sapiens, single dose 10^−5 M, read-out: Growth inhibition (%)
CAKI-1 = experiment: NCI-60 SRB screen; format: cell-based, human; conditions: Homo sapiens; CAKI-1; single dose 10^−5 M; read-out: Growth inhibition (%)
IGROV1 = experiment: NCI-60 SRB screen; format: cell-based, human; conditions: Homo sapiens, IGROV-1; IGROV1; single dose 10^−5 M; read-out: Growth inhibition (%)
HL-60(TB) = experiment: NCI-60 SRB screen; format: cell-based, human; conditions: Homo sapiens; HL-60 (TB); single dose 10^−5 M; read-out: Growth inhibition (%)
NCI-H460 = experiment: NCI-60 SRB screen; format: cell-based, human; conditions: Homo sapiens; NCI-H460; single dose 10^−5 M; read-out: Growth inhibition (%)
SK-MEL-2 = experiment: NCI-60 SRB screen; format: cell-based, human; conditions: Homo sapiens; SK-MEL-2; single dose 10^−5 M; read-out: Growth inhibition (%)
NCI-H322M = experiment: NCI-60 SRB screen; format: cell-based, human; conditions: Homo sapiens, single dose 10^−5 M, read-out: Growth inhibition (%)
MDA-MB-435 = experiment: NCI-60 SRB screen; format: cell-based; conditions: Homo sapiens, MDA-MB-435, read-out: Growth inhibition (%)
SF-295 = experiment: NCI-60 SRB screen; format: cell-based, human; conditions: Homo sapiens; SF-295; single dose 10^−5 M; read-out: Growth inhibition (%)
[1] = tested on: panel of 60 cancer cell lines; experiment: NCI-60 SRB screen, mean or range over the panel; format: cell-based, human; conditions: Homo sapiens; mean over the cell lines; single dose 10^−5 M; read-out: Mean growth inhibition (%)
A549/ATCC = experiment: NCI-60 SRB screen; format: cell-based, human; conditions: Homo sapiens, single dose 10^−5 M, read-out: Growth inhibition (%)
NCI-H23 = experiment: NCI-60 SRB screen; format: cell-based, human; conditions: Homo sapiens; NCI-H23; single dose 10^−5 M; read-out: Growth inhibition (%)
OVCAR-8 = experiment: NCI-60 SRB screen; format: cell-based, human; conditions: Homo sapiens; OVCAR-8; single dose 10^−5 M; read-out: Growth inhibition (%)
UACC-257 = experiment: NCI-60 SRB screen; format: cell-based, human; conditions: Homo sapiens, UACC-257; UACC-275 (so in the source); single dose 10^−5 M; read-out: Growth inhibition (%)
OVCAR-3 = experiment: NCI-60 SRB screen; format: cell-based, human; conditions: Homo sapiens; OVCAR-3; single dose 10^−5 M; read-out: Growth inhibition (%)
HOP-92 = experiment: NCI-60 SRB screen; format: cell-based, human; conditions: Homo sapiens; HOP-92; single dose 10^−5 M; read-out: Growth inhibition (%)
HCT-116 = experiment: NCI-60 SRB screen; format: cell-based, human; conditions: Homo sapiens; HCT-116; single dose 10^−5 M; read-out: Growth inhibition (%)
NCI/ADR-RES = experiment: NCI-60 SRB screen; format: cell-based, human; conditions: Homo sapiens, single dose 10^−5 M, read-out: Growth inhibition (%)
M14 = experiment: NCI-60 SRB screen; format: cell-based, human; conditions: Homo sapiens; M14; single dose 10^−5 M; read-out: Growth inhibition (%)
OVCAR-4 = experiment: NCI-60 SRB screen; format: cell-based, human; conditions: Homo sapiens; OVCAR-4; single dose 10^−5 M; read-out: Growth inhibition (%)
UO-31 = experiment: NCI-60 SRB screen; format: cell-based, human; conditions: Homo sapiens; UO-31; single dose 10^−5 M; read-out: Growth inhibition (%)
SK-OV-3 = experiment: NCI-60 SRB screen; format: cell-based, human; conditions: Homo sapiens; SK-OV-3; single dose 10^−5 M; read-out: Growth inhibition (%)
SK-MEL-28 = experiment: NCI-60 SRB screen; format: cell-based; conditions: Homo sapiens; SK-MEL-28; single dose 10^−5 M; read-out: Growth inhibition (%)
NCI-H522 = experiment: NCI-60 SRB screen; format: cell-based, human; conditions: Homo sapiens; NCI-H522; single dose 10^−5 M; read-out: Growth inhibition (%)
786-0 = experiment: NCI-60 SRB screen; format: cell-based; conditions: Homo sapiens; 786-0; single dose 10^−5 M; read-out: Growth inhibition (%)
COLO 205 = experiment: NCI-60 SRB screen; format: cell-based, human; conditions: Homo sapiens; COLO 205; single dose 10^−5 M; read-out: Growth inhibition (%)
MOLT-4 = experiment: NCI-60 SRB screen; format: cell-based; conditions: Homo sapiens; MOLT-4; single dose 10^−5 M; read-out: Growth inhibition (%)
UACC-62 = experiment: NCI-60 SRB screen; format: cell-based, human; conditions: Homo sapiens; UACC-62; single dose 10^−5 M; read-out: Growth inhibition (%)
MALME-3M = experiment: NCI-60 SRB screen; format: cell-based, human; conditions: Homo sapiens, single dose 10^−5 M, read-out: Growth inhibition (%)
KM12 = experiment: NCI-60 SRB screen; format: cell-based, human; conditions: Homo sapiens; KM12; single dose 10^−5 M; read-out: Growth inhibition (%)
HT-29 = experiment: NCI-60 SRB screen; format: cell-based; conditions: Homo sapiens; HT-29; single dose 10^−5 M; read-out: Growth inhibition (%)
TK-10 = experiment: NCI-60 SRB screen; format: cell-based, human; conditions: Homo sapiens; TK-10; single dose 10^−5 M; read-out: Growth inhibition (%)
EKVX = experiment: NCI-60 SRB screen; format: cell-based, human; conditions: Homo sapiens, single dose 10^−5 M, read-out: Growth inhibition (%)
K-562 = experiment: NCI-60 SRB screen; format: cell-based, human; conditions: Homo sapiens, K562; K-562; single dose 10^−5 M; read-out: Growth inhibition (%)
HOP-62 = experiment: NCI-60 SRB screen; format: cell-based, human; conditions: Homo sapiens; HOP-62; single dose 10^−5 M; read-out: Growth inhibition (%)
SF-268 = experiment: NCI-60 SRB screen; format: cell-based, human; conditions: Homo sapiens; SF-268; single dose 10^−5 M; read-out: Growth inhibition (%)
LOX IMVI = experiment: NCI-60 SRB screen; format: cell-based, human; conditions: Homo sapiens, single dose 10^−5 M, read-out: Growth inhibition (%)
CCRF-CEM = experiment: NCI-60 SRB screen; format: cell-based; conditions: Homo sapiens, single dose 10^−5 M, read-out: Growth inhibition (%)
SW-620 = experiment: NCI-60 SRB screen; format: cell-based; conditions: Homo sapiens; SW-620; single dose 10^−5 M; read-out: Growth inhibition (%)
SK-MEL-5 = experiment: NCI-60 SRB screen; format: cell-based, human; conditions: Homo sapiens; SK-MEL-5; single dose 10^−5 M; read-out: Growth inhibition (%)

SMILES: N#CC1C(=O)NC(c2cccc([N+](=O)[O-])c2)c2sc3c(F)cccc3c21 (stereo not drawn) [Compound 5d, 4-Cyano-8-fluoro-1-(3-nitrophenyl)-1,2-dihydro[1]benzothieno[2,3-c] pyridin-3(4H)-one]
- inhibition at 10 µM (HCT-15): 0.05%
- inhibition at 10 µM (NCI-H226): 3.95%
- inhibition at 10 µM (SN12C): 5.16%
- inhibition at 10 µM (SR): 17.3%
- inhibition at 10 µM (HCC-2998): -14.2%
- inhibition at 10 µM (ACHN): 13.5%
- inhibition at 10 µM (CAKI-1): 14.4%
- inhibition at 10 µM (IGROV1): 36.6%
- inhibition at 10 µM (HL-60(TB)): -0.44%
- inhibition at 10 µM (NCI-H460): 18.1%
- inhibition at 10 µM (SK-MEL-2): -13.1%
- inhibition at 10 µM (NCI-H322M): 4.25%
- inhibition at 10 µM (MDA-MB-435): -6.69%
- inhibition at 10 µM (SF-295): 1.95%
- inhibition at 10 µM [1]: 5%
- inhibition at 10 µM (A549/ATCC): -6.53%
- inhibition at 10 µM (NCI-H23): -0.19%
- inhibition at 10 µM (OVCAR-8): 5.37%
- inhibition at 10 µM (UACC-257): -19%
- inhibition at 10 µM (OVCAR-3): 9.36%
- inhibition at 10 µM (HOP-92): 17.2%
- inhibition at 10 µM (HCT-116): 7.78%
- inhibition at 10 µM (NCI/ADR-RES): 2.18%
- inhibition at 10 µM (M14): -8.86%
- inhibition at 10 µM (OVCAR-4): 9.55%
- inhibition at 10 µM (UO-31): 41.3%
- inhibition at 10 µM (SK-OV-3): -0.9%
- inhibition at 10 µM (SK-MEL-28): -21.6%
- inhibition at 10 µM (NCI-H522): 22.4%
- inhibition at 10 µM (786-0): -6.8%
- inhibition at 10 µM (COLO 205): -14.8%
- inhibition at 10 µM (MOLT-4): 18.9%
- inhibition at 10 µM (UACC-62): 12.2%
- inhibition at 10 µM (MALME-3M): -12.1%
- inhibition at 10 µM (KM12): 5.7%
- inhibition at 10 µM (HT-29): -2.29%
- inhibition at 10 µM (TK-10): -58.3%
- inhibition at 10 µM (EKVX): 11.5%
- inhibition at 10 µM (K-562): 8.17%
- inhibition at 10 µM (HOP-62): 21.4%
- inhibition at 10 µM (SF-268): 16.4%
- inhibition at 10 µM (LOX IMVI): 17.4%
- inhibition at 10 µM (CCRF-CEM): -0.08%
- inhibition at 10 µM (SW-620): 7.44%
- inhibition at 10 µM (SK-MEL-5): 4.83%
